Reference: patent US4927919A, “Chartreusin derivatives and salts thereof” (Ishihara Sangyo Kaisha, Ltd., priority 1985, dated 1990)

Tests used:
P-388 leukemia cells = assay: Antitumor activity against P-388 leukemia cells (i.p. implanted, i.v. drug); format: in vivo, BDF1 mice; conditions: i.v., 30-day observation; for response vs control in vivo at 20 mg/kg / response vs control in vivo at 40 mg/kg / response vs control in vivo at 80 mg/kg / response vs control in vivo at 60 mg/kg / response vs control in vivo at 30 mg/kg / response vs control in vivo at 20 mg/kg/day / response vs control in vivo at 40 mg/kg/day: Mus musculus, P388, iv, 720 h, read-out: T/C of MST; for response vs control in vivo at 20 mg/kg: dose b: 20 mg/kg/d × 3 (days 1, 5, 9); for response vs control in vivo at 40 mg/kg: dose c: 40 mg/kg/d × 3 (days 1, 5, 9); for response vs control in vivo at 60 mg/kg: dose e: 60 mg/kg/d × 3 (days 1, 5, 9); for response vs control in vivo at 30 mg/kg: dose j: 30 mg/kg/d × 3 (days 1, 5, 9); for response vs control in vivo at 20 mg/kg/day: dose b': 20 mg/kg/d × 2 (days 1, 5); for response vs control in vivo at 40 mg/kg/day: dose c': 40 mg/kg/d × 2 (days 1, 5)
Procedure: BDF1 mice were implanted intraperitoneally with P-388 leukemia cells at a rate of 1×10^6 cells/mouse, and each drug to be tested was administered intravenously on the first, fifth and ninth days, or on the first and fifth days after the implantation. […] The T/C (%) was calculated based on the following equation: [formula]
The drugs tested were as follows: solutions prepared by dissolving each of compound Nos. 34, 36 and 43 to 46 in physiological saline; suspension or solutions prepared by dissolving each of compound Nos. 35, 38 and 49 to 55 in dimethylacetamide, followed by adding thereto a small amount of a surface active agent (e.g., Tween-80) and then physiological saline; and suspension or solutions prepared by mixing each of the other compounds and a small amount of a surface active agent (e.g., Tween-80), followed by adding thereto physiological saline.

[1] = Acute toxicity (LD50, single intravenous administration); design: species or system day mice; conditions: mouse, in vivo, mice, single i.v.
Excerpt: In Table 15 are shown acute toxicity values (LD50, mg/kg) in day mice in the case of intravenously administering (once) each of the compounds of this invention in the form of preparations shown in the Preparation Examples shown in Table 16.

[2] = dose f: 80 mg/kg/d × 3 (days 1, 5, 9)

Row | Compound | response vs control in vivo at 20 mg/kg (P-388 leukemia cells) [%] | response vs control in vivo at 40 mg/kg (P-388 leukemia cells) [%] | LD50 ([1]; Preparation Example 2) [mg/kg] | further results
1 | COc1ccc2[nH]c(C(=O)Oc3c4cccc(OC5OC(C)C6OC(c7ccccc7)OC6C5OC5OC(C)C(O)C(OC)C5O)c4c4oc(=O)c5c(C)ccc6oc(=O)c3c4c65)cc2c1 (centres unmarked) [Compound 19, 6-O-{2-(5-methoxyindolyl)-carbonyl}-3',4'-O-benzylidene-chartreusin] | 131 | 165 | ≥ 40 | –
2 | COC1C(O)C(C)OC(OC2C(Oc3cccc4c(OC(=O)c5ccc(Br)o5)c5c(=O)oc6ccc(C)c7c(=O)oc(c34)c5c67)OC(C)C3OC(C)(C)OC32)C1O (centres unmarked) [Compound 8, 6-O-{2-(5-bromofuryl)-carbonyl}-3',4'-O-isopropylidene-chartreusin] | – | – | – | response vs control in vivo at 80 mg/kg (P-388 leukemia cells; [2]): 178%; LD50 ([1]; Preparation Example 3): ≥ 80 mg/kg
3 | COC1C(O)C(C)OC(OC2C(Oc3cccc4c(OC(=O)CCc5ccc6c(c5)OCO6)c5c(=O)oc6ccc(C)c7c(=O)oc(c34)c5c67)OC(C)C3OC(c4ccccc4)OC32)C1O (centres unmarked) [Compound 22] | 142 | 222 | ≥ 40 | –
4 | COC1C(O)C(C)OC(OC2C(Oc3cccc4c(OC(=O)Cc5c[nH]c6ccccc56)c5c(=O)oc6ccc(C)c7c(=O)oc(c34)c5c67)OC(C)C3OC(c4ccccc4)OC32)C1O (centres unmarked) [Compound 20] | 148 | 286 | ≥ 40 | –
5 | COC1C(N)C(C)OC(OC2C(Oc3cccc4c(OC(=O)CC(C)NC(=O)C(F)(F)F)c5c(=O)oc6ccc(C)c7c(=O)oc(c34)c5c67)OC(C)C3OC(c4ccccc4)OC32)C1O (centres unmarked) [Compound 41] | – | 187 | – | LD50 ([1]; Preparation Example 1): ≥ 40 mg/kg
6 | CCn1cc(C(=O)Oc2c3cccc(OC4OC(C)C5OC(C)(C)OC5C4OC4OC(C)C(O)C(OC)C4O)c3c3oc(=O)c4c(C)ccc5oc(=O)c2c3c54)c(=O)c2ccc(C)nc21 (centres unmarked) [Compound 107] | – | – | – | response vs control in vivo at 80 mg/kg (P-388 leukemia cells; [2]): 134%; LD50 ([1]; Preparation Example 4): ≥ 80 mg/kg
7 | CCn1cc(C(=O)Oc2c3cccc(OC4OC(C)C5OC(c6ccccc6)OC5C4OC4OC(C)C(O)C(OC)C4O)c3c3oc(=O)c4c(C)ccc5oc(=O)c2c3c54)c(=O)c2ccc(C)nc21 (centres unmarked) [Compound 108] | – | – | – | response vs control in vivo at 80 mg/kg (P-388 leukemia cells; [2]): 158%; LD50 ([1]; Preparation Example 4): ≥ 80 mg/kg
8 | COC1C(O)C(C)OC(OC2C(Oc3cccc4c(OC(=O)CCCc5c[nH]c6ccccc56)c5c(=O)oc6ccc(C)c7c(=O)oc(c34)c5c67)OC(C)C3OC(c4ccccc4)OC32)C1O (centres unmarked) [Compound 104] | 185 | – | ≥ 60 | response vs control in vivo at 60 mg/kg (P-388 leukemia cells): 256%; response vs control in vivo at 30 mg/kg (P-388 leukemia cells): 219%
9 | COC1C(O)C(C)OC(OC2C(Oc3cccc4c(OC(=O)C5CCCN(C)C5)c5c(=O)oc6ccc(C)c7c(=O)oc(c34)c5c67)OC(C)C3OC(c4ccccc4)OC32)C1O (centres unmarked) [Compound 24] | – | – | ≥ 40 | response vs control in vivo at 20 mg/kg/day (P-388 leukemia cells): 152%; response vs control in vivo at 40 mg/kg/day (P-388 leukemia cells): 186%
10 | COC1C(O)C(C)OC(OC2C(Oc3cccc4c(OC(=O)c5ccc[nH]5)c5c(=O)oc6ccc(C)c7c(=O)oc(c34)c5c67)OC(C)C3OC(c4ccccc4)OC32)C1O (centres unmarked) [Compound 1] | – | – | – | response vs control in vivo at 20 mg/kg/day (P-388 leukemia cells): 154%; response vs control in vivo at 40 mg/kg/day (P-388 leukemia cells): 188%; LD50 ([1]; Preparation Example 1): ≥ 40 mg/kg
11 | COC1C(O)C(C)OC(OC2C(Oc3cccc4c(OC(=O)c5cc6cc(O)ccc6[nH]5)c5c(=O)oc6ccc(C)c7c(=O)oc(c34)c5c67)OC(C)C3OC(c4ccccc4)OC32)C1O (centres unmarked) [Compound 102] | – | – | – | response vs control in vivo at 60 mg/kg (P-388 leukemia cells): 256%; response vs control in vivo at 30 mg/kg (P-388 leukemia cells): 233%; LD50 ([1]; Preparation Example 1): ≥ 60 mg/kg
12 | COC1C(N)C(C)OC(OC2C(Oc3cccc4c(OC(=O)CCNC=O)c5c(=O)oc6ccc(C)c7c(=O)oc(c34)c5c67)OC(C)C3OC(c4ccccc4)OC32)C1O (centres unmarked) [Compound 42] | 130 | 199 | – | LD50 ([1]; Preparation Example 1): ≥ 40 mg/kg
13 | COC1C(N)C(C)OC(OC2C(Oc3cccc4c(OC(=O)CCNC(=O)c5ccccc5)c5c(=O)oc6ccc(C)c7c(=O)oc(c34)c5c67)OC(C)C3OC(c4cccc(F)c4)OC32)C1O (centres unmarked) [Compound 55] | – | – | – | response vs control in vivo at 80 mg/kg (P-388 leukemia cells; [2]): 133%; LD50 ([1]; Preparation Example 6): ≥ 80 mg/kg
14 | COC1C(N)C(C)OC(OC2C(Oc3cccc4c(OC(=O)c5ccc(Cl)cc5)c5c(=O)oc6ccc(C)c7c(=O)oc(c34)c5c67)OC(C)C3OC(c4ccccc4)OC32)C1O (centres unmarked) [Compound 52] | 167 | – | – | LD50 ([1]; Preparation Example 6): ≥ 20 mg/kg
15 | COC1C(O)C(C)OC(OC2C(Oc3cccc4c(OC(=O)c5ccc6[nH]ccc6c5)c5c(=O)oc6ccc(C)c7c(=O)oc(c34)c5c67)OC(C)C3OC(c4ccccc4)OC32)C1O (centres unmarked) [Compound 18] | 167 | 242 | ≥ 40 | –
16 | COC1C(O)C(C)OC(OC2C(Oc3cccc4c(OC(=O)C5CCCN5C(=O)CNC(=O)CNC(=O)OCc5ccccc5)c5c(=O)oc6ccc(C)c7c(=O)oc(c34)c5c67)OC(C)C3OC(c4ccccc4)OC32)C1O (centres unmarked) [Compound 4] | 138 | – | ≥ 20 | –
17 | COC1C(O)C(C)OC(OC2C(Oc3cccc4c(OC(=O)C5CCN(C(=O)C(F)(F)F)CC5)c5c(=O)oc6ccc(C)c7c(=O)oc(c34)c5c67)OC(C)C3OC(C)(C)OC32)C1O (centres unmarked) [Compound 23] | – | 127 | – | LD50 ([1]; Preparation Example 3): ≥ 40 mg/kg
18 | COC1C(O)C(C)OC(OC2C(Oc3cccc4c(OC(=O)c5ccco5)c5c(=O)oc6ccc(C)c7c(=O)oc(c34)c5c67)OC(C)C3OC(C)(C)OC32)C1O (centres unmarked) [Compound 5] | – | – | – | response vs control in vivo at 80 mg/kg (P-388 leukemia cells; [2]): 217%; LD50 ([1]; Preparation Example 4): ≥ 80 mg/kg
19 | COC1C(O)C(C)OC(OC2C(Oc3cccc4c(OC(=O)C5CCCN5C(=O)OCc5ccccc5)c5c(=O)oc6ccc(C)c7c(=O)oc(c34)c5c67)OC(C)C3OC(C)(C)OC32)C1O (centres unmarked) [Compound 3, 6-O-(N-carbobenzyloxy-prolyl)-3',4'-O-isopropylidene-chartreusin] | – | 139 | – | response vs control in vivo at 80 mg/kg (P-388 leukemia cells; [2]): 195%; LD50 ([1]; Preparation Example 3): ≥ 160 mg/kg
20 | CCOCCC(=O)Oc1c2cccc(OC3OC(C)C4OC(c5ccccc5)OC4C3OC3OC(C)C(N)C(OC)C3O)c2c2oc(=O)c3c(C)ccc4oc(=O)c1c2c43 (centres unmarked) [Compound 35] | 188 | 244 | – | LD50 ([1]; Preparation Example 6): ≥ 40 mg/kg
21 | COC1C(O)C(C)OC(OC2C(Oc3cccc4c(OC(=O)C=Cc5ccc6c(c5)OCO6)c5c(=O)oc6ccc(C)c7c(=O)oc(c34)c5c67)OC(C)C3OC(c4ccccc4)OC32)C1O (centres unmarked) [Compound 21] | 131 | 176 | ≥ 40 | –
22 | COC1C(O)C(C)OC(OC2C(Oc3cccc4c(OC(=O)c5ccc6ccccc6n5)c5c(=O)oc6ccc(C)c7c(=O)oc(c34)c5c67)OC(C)C3OC(C)(C)OC32)C1O (centres unmarked) [Compound 27] | – | 142 | – | LD50 ([1]; Preparation Example 5): ≥ 80 mg/kg
23 | COC1C(N)C(C)OC(OC2C(Oc3cccc4c(OC(=O)CCNC=O)c5c(=O)oc6ccc(C)c7c(=O)oc(c34)c5c67)OC(C)C3OC(c4cccc(Br)c4)OC32)C1O (centres unmarked) [Compound 38] | – | – | – | response vs control in vivo at 80 mg/kg (P-388 leukemia cells; [2]): 133%; LD50 ([1]; Preparation Example 6): ≥ 80 mg/kg
24 | CCn1cc(C(=O)Oc2c3cccc(OC4OC(C)C5OC(c6ccccc6)OC5C4OC4OC(C)C(O)C(OC)C4O)c3c3oc(=O)c4c(C)ccc5oc(=O)c2c3c54)c(=O)c2cnc(N3CCCC3)nc21 (centres unmarked) [Compound 105] | – | – | ≥ 60 | response vs control in vivo at 60 mg/kg (P-388 leukemia cells): 256%; response vs control in vivo at 30 mg/kg (P-388 leukemia cells): 165%
25 | COC1C(O)C(C)OC(OC2C(Oc3cccc4c(OC(=O)c5cccs5)c5c(=O)oc6ccc(C)c7c(=O)oc(c34)c5c67)OC(C)C3OC(C)(C)OC32)C1O (centres unmarked) [Compound 62] | – | – | ≥ 80 | T/C of MST (P-388 leukemia cells; [2]): 131%
26 | COc1cccc(C(=O)Oc2c3cccc(OC4OC(C)C5OC(c6ccccc6)OC5C4OC4OC(C)C(N)C(OC)C4O)c3c3oc(=O)c4c(C)ccc5oc(=O)c2c3c54)c1 (centres unmarked) [Compound 51, 6-O-(m-methoxybenzoyl)-3',4'-O-benzylidene-4"-epiamino-4"-deoxy-chartreusin] | 185 | 244 | – | LD50 ([1]; Preparation Example 6): ≥ 40 mg/kg
27 | COC1C(N)C(C)OC(OC2C(Oc3cccc4c(OC(=O)C(C)CNC(=O)C(F)(F)F)c5c(=O)oc6ccc(C)c7c(=O)oc(c34)c5c67)OC(C)C3OC(c4ccccc4)OC32)C1O (centres unmarked) [Compound 40] | 142 | 219 | – | LD50 ([1]; Preparation Example 1): ≥ 40 mg/kg
28 | COC1C(O)C(C)OC(OC2C(Oc3cccc4c(OC(=O)C5CC(OC(C)=O)CC(C)(C)O5)c5c(=O)oc6ccc(C)c7c(=O)oc(c34)c5c67)OC(C)C3OC(c4ccccc4)OC32)C1O (centres unmarked) [Compound 26] | – | – | ≥ 20 | –
